Results from patent EP1981504B1, “THIADIAZOLE DERIVATIVES FOR THE TREATMENT OF NEURO DEGENERATIVE DISEASES” (NV reMYND, priority 2006, dated 2007).
Values after ≈ are worked out from the molar mass of the structure shown.

System: M17-SYNwt cells
Assay: α-synuclein cytotoxicity assay (LDH leakage from paraquat-treated α-synuclein over-expressing neuroblastoma cells)
Assay type: cell-based, human
Conditions: paraquat 32 mM, 40 hours, LDH release; for EC50: Homo sapiens, Neuroblastoma cell; for %I: percent inhibition of synuclein cytotoxicity at most effective concentration of test compound, relative to untreated paraquat cells
Experimental: Subsequently, LDH activity was determined using Promega Cytotox 96 NonRadioactive cytotoxicity assay, (Cat. G1780) according the supplier's instructions.
This corresponds to the following equation: (LDHreleaseoftreatedparaquatcellsatnon-effectiveconcentrationoftestcmpd)−(LDHreleaseoftreatedparaquatcellsatmosteffectiveconcentrationoftestcmpd)/(LDHreleaseofuntreatedparaquatcells)−(LDHreleasecontrolcells)*100% [formula]
1,2,4-thiadazole compounds made according to the methods described herein were screened for activity using the α-synuclein cytotoxicity assay as described above. Dose responses were carried out on all compounds found to be active (10 point curves in duplicate).

Compound	EC50 (10 point curves in duplicate)	%I	EC50 (µg/mL) (10 point curves in duplicate)
COc1ccc(C(=O)N2CCN(c3nc(Cc4ccc(F)cc4)ns3)CC2C)cc1 (stereo not drawn) [Compound 118, 1-(4-methoxybenzoyl)-4-[3-(4-fluorobenzyl)-1,2,4-thiadiazol-5-yl]-2-methylpiperazine]	0.0911 µg/mL (≈ 0.214 µM)	64%	–
CCCCc1ccc(C(=O)NCCN2CCN(c3nc(Cc4ccc(F)cc4)ns3)CC2)cc1 [Compound 95, 4-butyl-N-{2-[4-[3-(4-fluorobenzyl)-1,2,4-thiadiazol-5-yl]piperazin-1-yl]ethyl}benzamide]	0.38 µg/mL (≈ 0.789 µM)	78%	–
COc1ccc(S(=O)(=O)N2CCN(c3nc(Cc4cccc(OC)c4)ns3)CC2C)cc1 (stereo not drawn) [Compound 208, 1-[4-methoxyphenylsulfonyl]-4-[3-(3-methoxybenzyl)-1,2,4-thia-diazol-5-yl]-2-methyl-piperazine]	0.0034 µg/mL (≈ 0.00716 µM)	92%	–
Cc1ccc(Cc2nsc(N3CCN(S(=O)(=O)c4ccc5ccccc5c4)C(C)C3)n2)cc1 (stereo not drawn) [Compound 38, 1-[2-naphtylsulfonyl]-4-[3-(4-methylbenzyl)-1,2,4-thiadiazol-5-yl]-2-methylpiperazine]	0.13 µg/mL (≈ 0.272 µM)	78%	–
CCCCCCc1ccc(C(=O)N2CCN(c3nc(Cc4ccc(F)cc4)ns3)CC2)cc1 [Compound 121, 1-(4-hexylbenzoyl)-4-[3-(4-fluorobenzyl)-1,2,4-thiadiazol-5-yl]piperazine]	0.12 µg/mL (≈ 0.257 µM)	64%	–
Cc1ccc(Cc2nsc(N3CCN(CCNC(=O)Cc4ccc(F)cc4)CC3)n2)cc1 [Compound 109, 2-(4-fluorophenyl)-N-{2-[4-[3-(4-methylbenzyl)-1,2,4-thiadiazol-5-yl]piperazin-1-yl]ethyl}acetamide]	3.52 µg/mL (≈ 7.76 µM)	93%	–
CCCCc1ccc(C(=O)N2CCN(c3nc(Cc4ccc(F)cc4)ns3)CC2C)cc1 (stereo not drawn) [Compound 120, 1-(4-butylbenzoyl)-4-[3-(4-fluorobenzyl)-1,2,4-thiadiazol-5-yl]-2-methylpiperazine]	0.0987 µg/mL (≈ 0.218 µM)	120%	–
O=C(c1ccccc1F)N1CCN(c2nc(Cc3ccc(Cl)cc3)ns2)CC1 [Compound 159, 1-(2-fluorobenzoyl)-4-[3-(4-chlorobenzyl)-1,2,4-thiadiazol-5-yl]piperazine]	2.85 µg/mL (≈ 6.84 µM)	48%	–
Cc1ccc(Cc2nsc(N3CCN(C(=O)c4ccccc4F)C(C)C3)n2)cc1 (stereo not drawn) [Compound 149, 1-(2-fluorobenzoyl)-4-[3-(4-methylbenzyl)-1,2,4-thiadiazol-5-yl]-2-methylpiperazine]	0.98 µg/mL (≈ 2.39 µM)	105%	–
CC1CN(c2nc(Cc3ccc(F)cc3)ns2)CCN1S(=O)(=O)c1ccc(F)cc1 (stereo not drawn) [Compound 59, 1-[4-fluorophenylsulfonyl]-4-[3-(4-fluorobenzyl)-1,2,4-thiadiazol-5-yl]-2-methylpiperazine]	–	42%	–
1-(phenylprop-2-ensulfonyl)-4-[3-(4-methylbenzyl)-1,2,4-thiadiazol-5-yl]piperazine [Compound 80]	–	70%	0,056880 µg/mL
COc1ccc(S(=O)(=O)N2CCN(c3nc(Cc4ccccc4C)ns3)CC2)cc1 [Compound 202]	0.0075 µg/mL (≈ 0.0169 µM)	63%	–
Cc1ccc(Cc2nsc(N3CCN(S(=O)(=O)c4ccc(Cl)cc4)CC3)n2)cc1 [Compound 66, 1-[4-chlorophenylsulfonyl]-4-[3-(4-methylbenzyl)-1,2,4-thiadiazol-5-yl]piperazine]	–	81%	–
O=C(NCCN1CCN(c2nc(Cc3ccc(F)cc3)ns2)CC1)c1cccc(F)c1 [Compound 105, 3-fluoro-N-{2-[4-[3-(4-fluorobenzyl)-1,2,4-thiadiazol-5-yl]piperazin-1-yl]ethyl}benzamide]	–	115%	–
CCCCCCc1ccc(C(=O)N2CCN(c3nc(Cc4ccc(C)cc4)ns3)CC2)cc1 [Compound 176, 1-(4-hexylbenzoyl)-4-[3-(4-methylbenzyl)-1,2,4-thiadiazol-5-yl]piperazine]	–	77%	–
O=C(Nc1ccccc1)N1CCN(c2nc(Cc3ccc(F)cc3)ns2)CC1 [Compound 13, N-phenyl-4-[3-(4-fluorobenzyl)-1,2,4-thiadiazol-5-yl]piperazine-1-carboxamide]	1.23 µg/mL (≈ 3.09 µM)	71%	–
COc1cccc(Cc2nsc(N3CCN(C(=O)c4ccc(Cl)cc4)C(C)C3)n2)c1 (stereo not drawn) [Compound 174, 1-(4-chlorobenzoyl)-4-[3-(3-methoxybenzyl)-1,2,4-thiadiazol-5-yl]-2-methylpiperazine]	–	83%	–
Cc1ccc(Cc2nsc(N3CCN(C(=O)c4ccc(Br)cc4)CC3)n2)cc1 [Compound 164, 1-(4-bromobenzoyl)-4-[3-(4-methylbenzyl)-1,2,4-thiadiazol-5-yl]piperazine]	3.86 µg/mL (≈ 8.44 µM)	60%	–
Cc1ccccc1NC(=O)N1CCN(c2nc(Cc3ccc(F)cc3)ns2)CC1 [Compound 15, N-(2-methylphenyl)-4-[3-(4-fluorobenzyl)-1,2,4-thiadiazol-5-yl]piperazine-1-carboxamide]	5.01 µg/mL (≈ 12.2 µM)	65%	–
CC1CN(c2nc(Cc3ccc(F)cc3)ns2)CCN1S(=O)(=O)c1ccc(C(C)(C)C)cc1 (stereo not drawn) [Compound 54, 1-[4-tert-butylphenylsulfonyl]-4-[3-(4-fluorobenzyl)-1,2,4-thiadiazol-5-yl]-2-methylpiperazine]	–	60%	–
CCOc1ccc(S(=O)(=O)N2CCN(c3nc(Cc4ccc(F)cc4)ns3)CC2)cc1 [Compound 196, 1-[4-ethoxyphenylsulfonyl]-4-[3-(4-fluoro-benzyl)-1,2,4-thiadiazol-5-yl]piperazine]	0.0081 µg/mL (≈ 0.0175 µM)	42%	–
CC1CN(c2nc(Cc3ccc(F)cc3)ns2)CCN1C(=O)CCc1ccccc1 (stereo not drawn) [Compound 89, 1-(3-phenylpropanoyl)-4-[3-(4-fluorobenzyl)-1,2,4-thiadiazol-5-yl]-2-methylpiperazine]	0.6 µg/mL (≈ 1.41 µM)	86%	–
Cc1ccc(Cc2nsc(N3CCN(C(=O)c4ccccc4)C(C)C3)n2)cc1 (stereo not drawn) [Compound 169, 1-benzoyl-4-[3-(4-methylbenzyl)-1,2,4-thiadiazol-5-yl]-2-methylpiperazine]	–	91%	–
O=S(=O)(c1ccc2ccccc2c1)N1CCN(c2nc(Cc3ccc(Cl)cc3)ns2)CC1 [Compound 52, 1-[2-naphtylsulfonyl]-4-[3-(4-chlorobenzyl)-1,2,4-thiadiazol-5-yl]piperazine]	0.1 µg/mL (≈ 0.206 µM)	104%	–
Cc1ccc(Cc2nsc(N3CCN(C(=O)c4ccc(F)cc4)CC3)n2)cc1 [Compound 160, 1-(4-fluorobenzoyl)-4-[3-(4-methylbenzyl)-1,2,4-thiadiazol-5-yl]piperazine]	2.87 µg/mL (≈ 7.24 µM)	88%	–
CCCCCCc1ccc(C(=O)NCCN2CCN(c3nc(Cc4ccc(F)cc4)ns3)CC2)cc1 [Compound 96, 4-hexyl-N-{2-[4-[3-(4-fluorobenzyl)-1,2,4-thiadiazol-5-yl]piperazin-1-yl]ethyl}benzamide]	0.8 µg/mL (≈ 1.57 µM)	72%	–
COc1cccc(Cc2nsc(N3CCN(C(=O)c4ccc(C(F)(F)F)cc4)C(C)C3)n2)c1 (stereo not drawn) [Compound 168, 1-(4-trifluoromethylbenzoyl)-4-[3-(3-methoxybenzyl)-1,2,4-thiadiazol-5-yl]-2-methylpiperazine]	–	91%	–
CC1CN(c2nc(Cc3ccc(F)cc3)ns2)CCN1C(=O)/C=C/c1ccccc1 (stereo not drawn) [Compound 87, 1-[(2E)-3-phenylprop-2-enoyl]-4-B103-2-methylpiperazine]	2.49 µg/mL (≈ 5.89 µM)	94%	–
